Experimental data published in patent publication US20210231673A1, “METHODS AND COMPOSITIONS FOR DETECTION AND QUANTIFICATION OF SMALL MOLECULES AND OTHER ANALYTES” (President and Fellows of Harvard College, priority 2018, published 2021).

Tests used:
Assay type in all cases: binding
[1] = system: anti-PGE2 antibody; assay: Single-plex competitive single molecule array assay for PGE2 (BSA-PGE2 beads)
Experimental: (§1) Carboxylated 2.7 μm paramagnetic beads (˜4×10^8), non-encoded for single-plex assays and dye-encoded (488 nm and 647 nm) for multiplex assays, were washed three times with 600 μL of bead wash buffer (0.1% TWEEN® 20 in 1× PBS, pH 7.4) and twice with 400 μL of MES buffer (50 mM MES, pH 6.2). 1 mg/mL EDC in MES buffer was freshly prepared and 200 μL was added to the beads and mixed well. The beads were activated on a shaker for 30 min. After activation, the beads were washed once with 200 μL of MES buffer. 200 μL of 10 mg/mL BSA or BSA-cortisol conjugate in MES buffer were added to the activated beads. The beads were incubated at room temperature with shaking for 2 h, and then washed three times with bead wash buffer. […] The beads were counted using a Beckman-Coulter MULTISIZER™.
(§2) A two-step assay configuration was chosen when hapten-BSA-coated beads were used. […] Images of the arrays were analyzed and AEB (average enzyme per bead) values were calculated by the software in the SIMOA HD-1 ANALYZER™.
(§3) Standard curves were obtained by plotting the signal responses (AEB and OD) against the logarithm of analyte concentrations using Origin software (Origin 9.5). […] The limit of detection (LOD) was calculated as three standard deviations (SDs) above the background. […]

[2] = system: anti-PGE2 antibody; assay: Two-plex single molecule array assay for PGE2 and cortisol: PGE2; conditions: simultaneous detection of cortisol and PGE2
Experimental: as §1, §2, §3

[3] = system: anti-cortisol antibody (XM210); assay: Multiplex single molecule array assay for IL-6 and cortisol: cortisol (competitive); conditions: simultaneous detection of IL-6 and cortisol
Experimental: A two-step assay configuration was used for simultaneous detection of IL-6 and cortisol. BSA-cortisol coated beads were mixed with anti-IL6 capture beads (1:1 in number). The mixed beads were diluted to a concentration of 10,000 beads/μL. A mixture of detection antibodies, 10 pM for anti-cortisol antibody (XM210) and 1 nM for anti-IL6 detector, was prepared in Detector Diluent. A mixture of cortisol and IL-6 standards was serially diluted to desired concentrations. All the other conditions were the same as the single-plex assay.
Standard curves were obtained by plotting the signal responses (AEB and OD) against the logarithm of analyte concentrations using Origin software (Origin 9.5). The 4-parameter logistic equation y=A2+(A1−A2)/[1+(x/x0)^P] was used for curve fitting in the whole concentration range, where A1 is the maximum signal without analyte, A2 is the minimum signal at infinite concentration, p is the curve slope at the inflection point, and x0 is the IC50 (analyte concentration causing a 50% inhibition of the maximum response). The lower the IC50 is, the higher the sensitivity is. The limit of detection (LOD) was calculated as three standard deviations (SDs) above the background. All measurements were performed in triplicate. […]

[4] = Conventional competitive ELISA for cortisol (BSA-cortisol coated plate); conditions: cortisol concentration causing 50% inhibition of maximum response
Experimental: The high-binding 96-well microtiter plate was coated with BSA-cortisol conjugate in PBS (1 μg/mL, 100 μL/well) overnight at 4° C. After washing, the plate was blocked with 1% BSA in PBS (200 μL/well) for 1 h at room temperature and subsequently washed. Next, biotinylated anti-cortisol (10 nM, 10 μL/well) in PBS and serial concentrations of cortisol standard (0, 0.001, 0.01, 0.1, 1, 10, 100 and 1,000 ng/mL,100 μL/well) prepared in Sample Diluent were added to the wells. The immunoreaction was allowed to proceed for 1 h. After washing, the plate was incubated with streptavidin-horseradish peroxidase (HRP((2 nM, 100 μL/well) for 30 min. After another washing, 3,3′,5,5′-tetramethylbenzidine (TMB) substrate (100 μL/well) was added and the plate was incubated for 15 min. Next, 50 μL of 1 mol/L hydrochloric acid was added to each well to stop the enzymatic reaction. Finally, the optical density (OD) was recorded at 450 nm on a Tecan Infinite M200 Plate Reader.
as §3

[5] = Competitive single molecule array assay, BSA-cortisol MBs (two-step, single-plex); conditions: single-plex comparison to IL-6/cortisol multiplex
Experimental: A two-step assay configuration was chosen when hapten-BSA-coated beads were used. Specifically, hapten-BSA-coated capture beads were diluted in Bead Diluent (Quanterix) to a concentration of 5,000 beads/μL. Biotinylated detector antibodies were diluted in Detector Diluent (Quanterix) to the desired concentration (1 pM for anti-cortisol antibodies, and 1 nM for anti-PGE2 antibodies). SβG concentrate was diluted to 200 pM in SβG Diluent (Quanterix). Cortisol and PGE2 standards were serially diluted to desired concentrations in Sample Diluent. The reagents including beads, detector, and SβG were placed in plastic bottles (Quanterix). The samples were loaded onto a 96-well plate (Quanterix). […] Images of the arrays were analyzed and AEB (average enzyme per bead) values were calculated by the software in the SIMOA HD-1 ANALYZER™.
as §3
We applied single molecule array assay to small molecule detection by developing a bead-based competitive protocol. […] The beads labeled with detection probes were then labeled with an enzyme, SβG, via biotin-streptavidin interaction and detected by enzymatic readout on the SIMOA™ platform. […]

[6] = system: anti-cortisol antibody; assay: Two-plex single molecule array assay for PGE2 and cortisol: cortisol; conditions: simultaneous detection of cortisol and PGE2
Experimental: as §1, §2, §3

CCCCC[C@H](O)/C=C/[C@H]1[C@H](O)CC(=O)[C@@H]1C/C=C\CCCC(=O)O [PGE2, Prostaglandin E2]
IC50 for PGE2, single-plex assay [1]: 0.37 ng/mL | IC50 for PGE2, two-plex assay [2]: 0.7 ng/mL

C[C@]12CCC(=O)C=C1CC[C@@H]1[C@@H]2[C@@H](O)C[C@@]2(C)[C@H]1CC[C@]2(O)C(=O)CO [cortisol]
IC50 for cortisol, multiplex assay with IL-6 [3]: 0.57 ng/mL | ELISA IC50 [4]: 170.23 ng/mL | IC50 for cortisol, single-plex assay [5]: 0.54 ng/mL | IC50 for cortisol, two-plex assay [6]: 0.46 ng/mL
